Values quoted from earlier work in patent US6482863B2, “Insect repellant formulation deliverable by piezoelectric device” (S. C. Johnson & Son, Inc., priority 2000, dated 2002).

How the values were obtained:
[1] = at 20° C.
[2] = at 25° C.

viscosity of solvent [2] [cp] | water solubility [g/100 ml water] | Structure (SMILES) | vapor pressure of solvent [1] [mm Hg]
– | – | COCC(C)O (stereo not shown) [Propylene glycol methyl ether] | 8.1
1 | 35 | COCC(C)OCC(C)OC (stereo not shown) [Dipropylene glycol dimethyl ether] | 0.55
